# Source: patent US12540118B2, “Dendrene amide compound, bactericide and use thereof” (Jiangsu Flag Chemical Industry Co., Ltd., priority 2020, dated 2026)
# Columns and labels:
# Erysiphe graminis = Erysiphe graminis potting method; format: in vivo; conditions: Blumeria graminis; 100 mg/L; read-out: Erysiphe graminis control rating
# Method: The fungicidal activity of the control agents and target compounds are determined. The test and investigation method refers to SOP-SC-1116 Erysiphe graminis potting method in disinfectant rolls written by KANGZHUO and GUBAOGEN in “Standard operation specification for testing biological activity of pesticides”.
# succinate dehydrogenase = molecular target: T1, succinate dehydrogenase (Sus scrofa, UniProt A5GZW8+D0VWV4+Q007T0); assay: Enzyme activity assay, succinate dehydrogenase (DCIP reduction); format: biochemical, porcine; conditions: read-out: Inhibitors (10 μM, SQR)
# T1 construct: isolated from porcine hearts; from tissue; host or cells: porcine heart
# T1 sequence (Q0QF01 43-664 partner): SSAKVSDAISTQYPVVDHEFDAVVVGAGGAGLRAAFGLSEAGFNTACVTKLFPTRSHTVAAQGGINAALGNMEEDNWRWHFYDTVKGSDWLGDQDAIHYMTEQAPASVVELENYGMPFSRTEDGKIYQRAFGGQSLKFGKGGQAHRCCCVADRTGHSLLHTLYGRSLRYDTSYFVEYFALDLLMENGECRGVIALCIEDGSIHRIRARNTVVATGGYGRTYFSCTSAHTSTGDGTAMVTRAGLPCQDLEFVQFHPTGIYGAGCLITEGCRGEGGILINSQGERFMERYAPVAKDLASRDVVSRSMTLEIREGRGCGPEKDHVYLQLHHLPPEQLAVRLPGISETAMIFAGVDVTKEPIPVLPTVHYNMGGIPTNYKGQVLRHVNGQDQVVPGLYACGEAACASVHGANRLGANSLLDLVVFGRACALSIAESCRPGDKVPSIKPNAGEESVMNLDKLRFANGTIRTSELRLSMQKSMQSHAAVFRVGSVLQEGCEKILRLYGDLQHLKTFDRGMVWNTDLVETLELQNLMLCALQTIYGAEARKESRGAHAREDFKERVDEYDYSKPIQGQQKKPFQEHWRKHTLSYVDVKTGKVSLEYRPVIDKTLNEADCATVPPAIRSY
# T1 sequence (Q007T0 29-280): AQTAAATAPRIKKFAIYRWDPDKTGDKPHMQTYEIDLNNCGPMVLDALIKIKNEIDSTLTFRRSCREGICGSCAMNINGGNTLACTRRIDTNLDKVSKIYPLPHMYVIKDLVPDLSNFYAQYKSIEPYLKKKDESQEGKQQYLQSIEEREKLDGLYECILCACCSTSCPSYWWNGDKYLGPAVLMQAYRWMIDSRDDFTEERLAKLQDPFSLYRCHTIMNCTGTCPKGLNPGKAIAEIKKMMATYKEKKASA
# T1 sequence (D0VWV4 30-169): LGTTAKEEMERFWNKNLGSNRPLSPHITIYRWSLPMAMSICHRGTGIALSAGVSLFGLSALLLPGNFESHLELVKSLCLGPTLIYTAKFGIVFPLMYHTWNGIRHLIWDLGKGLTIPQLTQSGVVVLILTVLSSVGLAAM
# T1 sequence (A5GZW8 57-159 limits assumed): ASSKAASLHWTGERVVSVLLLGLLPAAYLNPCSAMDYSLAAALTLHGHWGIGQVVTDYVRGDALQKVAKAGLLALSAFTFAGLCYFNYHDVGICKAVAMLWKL
# Outline: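 Porcine heart succinate dehydrogenase (2 nM) in 100 mM sodium phosphate pH 7.4, 0.3 mM EDTA, 20 mM sodium succinate and 53 μM DCIP at 23° C with stirring. DCIP reduction followed at 600 nm (ε 21 mM^−1 cm^−1); linear slope minus baseline gives initial rate.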
# Sphaerotheca fuliginea = Sphaerotheca fuliginea potting method; format: in vivo; conditions: Podosphaera fuliginea; 100 mg/L; read-out: Sphaerotheca fuliginea control rating
# Method: The fungicidal activity of the control agents and target compounds are determined. The test and investigation method refers to SOP-SC-1101 sphaerotheca fuliginea potting method in disinfectant rolls written by KANGZHUO and GUBAOGEN in “Standard operation specification for testing biological activity of pesticides”.
Structure (SMILES),inhibition at 10 µM (succinate dehydrogenase) [%],pest or weed control at 100 µg/mL (Erysiphe graminis) [%],pest or weed control at 100 µg/mL (Sphaerotheca fuliginea) [%]
Cn1nc(C(F)F)c(C(=O)N(CC(=C(Cl)Cl)c2ccc(C#CC3CC3)cc2Cl)C2CC2)c1F [Compound 165],> 90,80 to 100,80 to 100
CC(C(=C(Cl)Cl)c1ccccc1Cl)N(C(=O)c1c(C(F)F)nn(C)c1F)C1CC1 (stereo not drawn) [Compound 168],> 90,80 to 100,80 to 100
CC(C(=C(Cl)Cl)c1cccc(Cl)c1)N(C(=O)c1c(C(F)F)nn(C)c1F)C1CC1 (stereo not drawn) [Compound 169],> 90,80 to 100,80 to 100
CC(C(=C(Cl)Cl)c1ccc(Cl)cc1Cl)N(C(=O)c1c(C(F)F)nn(C)c1F)C1CC1 (stereo not drawn) [Compound 170],> 90,80 to 100,80 to 100
CC(C(=C(Cl)Cl)c1cc(Cl)ccc1Cl)N(C(=O)c1c(C(F)F)nn(C)c1F)C1CC1 (stereo not drawn) [Compound 171],> 90,80 to 100,80 to 100
CC(C(=C(Cl)Cl)c1c(Cl)cccc1Cl)N(C(=O)c1c(C(F)F)nn(C)c1F)C1CC1 (stereo not drawn) [Compound 172],> 90,80 to 100,80 to 100
CC(C(=C(Cl)Cl)c1ccc(Cl)c(Cl)c1)N(C(=O)c1c(C(F)F)nn(C)c1F)C1CC1 (stereo not drawn) [Compound 173],> 90,80 to 100,80 to 100
CC(C(=C(Cl)Cl)c1cc(Cl)cc(Cl)c1)N(C(=O)c1c(C(F)F)nn(C)c1F)C1CC1 (stereo not drawn) [Compound 174],> 90,80 to 100,80 to 100

# Now from value to compound, other results behind:
inhibition at 10 µM (succinate dehydrogenase) [%],Structure (SMILES),pest or weed control at 100 µg/mL (Erysiphe graminis) [%],pest or weed control at 100 µg/mL (Sphaerotheca fuliginea) [%]
> 90,CC(C(=C(Cl)Cl)c1c(Cl)cc(Cl)cc1Cl)N(C(=O)c1c(C(F)F)nn(C)c1F)C1CC1 (stereo not drawn) [Compound 175],80 to 100,80 to 100
> 90,CC(C(=C(Cl)Cl)c1ccccc1F)N(C(=O)c1c(C(F)F)nn(C)c1F)C1CC1 (stereo not drawn) [Compound 176],80 to 100,80 to 100
> 90,CC(C(=C(Cl)Cl)c1cccc(F)c1)N(C(=O)c1c(C(F)F)nn(C)c1F)C1CC1 (stereo not drawn) [Compound 177],80 to 100,80 to 100
> 90,CC(C(=C(Cl)Cl)c1ccc(F)cc1)N(C(=O)c1c(C(F)F)nn(C)c1F)C1CC1 (stereo not drawn) [Compound 178],80 to 100,80 to 100
> 90,CC(C(=C(Cl)Cl)c1ccc(F)cc1F)N(C(=O)c1c(C(F)F)nn(C)c1F)C1CC1 (stereo not drawn) [Compound 179],80 to 100,80 to 100
> 90,CC(C(=C(Cl)Cl)c1cc(F)ccc1F)N(C(=O)c1c(C(F)F)nn(C)c1F)C1CC1 (stereo not drawn) [Compound 180],80 to 100,80 to 100
> 90,CC(C(=C(Cl)Cl)c1c(F)cccc1F)N(C(=O)c1c(C(F)F)nn(C)c1F)C1CC1 (stereo not drawn) [Compound 181],80 to 100,80 to 100
> 90,CC(C(=C(Cl)Cl)c1c(F)cc(F)cc1F)N(C(=O)c1c(C(F)F)nn(C)c1F)C1CC1 (stereo not drawn) [Compound 182],80 to 100,80 to 100
> 90,CC(C(=C(Cl)Cl)c1ccc(F)c(F)c1)N(C(=O)c1c(C(F)F)nn(C)c1F)C1CC1 (stereo not drawn) [Compound 183],80 to 100,80 to 100
> 90,CC(C(=C(Cl)Cl)c1ccc(Br)cc1)N(C(=O)c1c(C(F)F)nn(C)c1F)C1CC1 (stereo not drawn) [Compound 184],80 to 100,80 to 100
> 90,CC(C(=C(Cl)Cl)c1ccccc1Br)N(C(=O)c1c(C(F)F)nn(C)c1F)C1CC1 (stereo not drawn) [Compound 185],80 to 100,80 to 100
